Experimental data published in patent publication US11168067B2, “Substituted quinazoline compound having blood-brain barrier penetration capability” (WEISHANG (SHANGHAI) BIO-PHARMACEUTICAL CO., LTD., priority 2016, dated 2021).

Legend:
[1] = Blood-brain barrier penetration (brain tissue to plasma concentration ratio); format: in vivo; conditions: rat, rats, four hours after dosing
Experimental: To determine whether the compound was able to cross the blood-brain barrier (BBB), the rats were administered with the test compound. Four hours after dosing, rats were sacrificed, blood and brain tissue were collected and the concentration of the test compound was analyzed. Brain permeation is defined as the ratio of the concentration of the compound in the brain tissue to the concentration in the plasma. P-glycoprotein is the blood-brain barrier efflux protein, […].

PC-9 tumor cell = assay: CellTiter-Glo (CTG) cell viability assay, PC-9 tumor cell growth inhibition; conditions: for IC50: Homo sapiens, PC-9, 72 h, read-out: PC-9 tumor cell growth inhibition IC50; for inhibiting PC-9 tumor cell growth compared with Iressa: PC-9 cells, cell viability assay
Experimental: Cell viability of tumor cells with EGFR-activated mutations (exon 19-deficient Exon 19 Del) protein was detected using CellTiter-Glo (CTG) assay; about 5000 cells were seeded in each blank 96-well plate, 16 hours later, add the proportionally diluted compound, equilibrated at room temperature for 72 hours after the addition of the drug for 30 minutes. 100 μl of CellTiter-Glo reagent was added to each well and the orbital shaker was mixed for 2 minutes to induce cell lysis. The plate was incubated at room temperature for 10 minutes to stabilize the luminescence signal. The TECAN Infinite M1000 Pro instrument records the luminescence signal.

Compound	Kp at 4 h [1]	IC50 (PC-9 tumor cell) [nM]	inhibiting PC-9 tumor cell growth compared with Iressa (PC-9 tumor cell)
COc1cc2ncnc(Nc3cccc(Cl)c3F)c2cc1OC1CCN(C2COC2)CC1(F)F (racemic) [Compound 1, (R/S)—N-(3-chloro-2-fluorophenyl)-6-((3,3-difluoro-1-(oxetan-3-yl)piperidin-4-yl)oxy)-7-methoxyquinazolin-4-amine]	> 0.3	< 1	more effective than Iressa
C#Cc1cccc(Nc2ncnc3cc(OC)c(OC4CCN(C5COC5)CC4(F)F)cc23)c1F (racemic) [Compound 2, (R/S)-6-((3,3-difluoro-1-(oxetan-3-yl)piperidin-4-yl)oxy)-N-(3-ethynyl-2-fluorophenyl)-7-methoxyquinazolin-4-amine]	> 0.3		
[2H]C([2H])([2H])Oc1cc2ncnc(Nc3cccc(Cl)c3F)c2cc1OC1CCN(C2COC2)CC1(F)F (racemic) [Compound 3, (R/S)—N-(3-chloro-2-fluorophenyl)-6-((3,3-difluoro-1-(oxetan-3-yl)piperidin-4-yl)oxy)-7-(methoxy-d3)quinazolin-4-amine]	> 0.3	< 1	
[2H]C([2H])([2H])Oc1cc2ncnc(Nc3cccc(C#C)c3F)c2cc1OC1CCN(C2COC2)CC1(F)F (racemic) [Compound 4, (R/S)-6-((3,3-difluoro-1-(oxetan-3-yl)piperidin-4-yl)oxy)-N-(3-ethynyl-2-fluorophenyl)-7-(methoxy-d3)quinazolin-4-amine]	> 0.3		
C#Cc1c(F)ccc(Nc2ncnc3cc(OC)c(OC4CCN(C)CC4(F)F)cc23)c1F (racemic) [Compound 5, (R/S)-6-((3,3-difluoro-1-methylpiperidin-4-yl)oxy)-N-(3-ethynyl-2,4-difluorophenyl)-7-methoxyquinazolin-4-amine]	> 0.3		
C#Cc1cccc(Nc2ncnc3cc(OC)c(OC4CCN(C)CC4(F)F)cc23)c1F (racemic) [Compound 6, (R/S)-6-((3,3-difluoro-1-methylpiperidin-4-yl)oxy)-N-(3-ethynyl-2-fluorophenyl)-7-methoxyquinazolin-4-amine]	> 0.3		
COc1cc2ncnc(Nc3ccc(F)c(Cl)c3F)c2cc1OC1CCN(C2COC2)CC1(F)F (racemic) [Compound 7, (R/S)—N-(3-chloro-2,4-difluorophenyl)-6-((3,3-difluoro-1-(oxetan-3-yl)piperidin-4-yl)oxy)-7-methoxyquinazolin-4-amine]	> 0.3	< 1	more effective than Iressa
C#Cc1c(F)ccc(Nc2ncnc3cc(OC)c(OC4CCN(C5COC5)CC4(F)F)cc23)c1F (racemic) [Compound 8, (R/S)-6-((3,3-difluoro-1-(oxetan-3-yl)piperidin-4-yl)oxy)-N-(3-ethynyl-2,4-difluorophenyl)-7-methoxyquinazolin-4-amine]	> 0.3		
[2H]C([2H])([2H])Oc1cc2ncnc(Nc3ccc(F)c(Cl)c3F)c2cc1OC1CCN(C2COC2)CC1(F)F (racemic) [Compound 9, (R/S)—N-(3-chloro-2,4-difluorophenyl)-6-((3,3-difluoro-1-(oxetan-3-yl)piperidin-4-yl)oxy)-7-(methoxy-d3)quinazolin-4-amine]	> 0.3	< 1	more effective than Iressa
[2H]C([2H])([2H])Oc1cc2ncnc(Nc3ccc(F)c(C#C)c3F)c2cc1OC1CCN(C2COC2)CC1(F)F (racemic) [Compound 10, (R/S)-6-((3,3-difluoro-1-(oxetan-3-yl)piperidin-4-yl)oxy)-N-(3-ethynyl-2,4-difluorophenyl)-7-(methoxy-d3)quinazolin-4-amine]	> 0.3		
COc1cc2ncnc(Nc3cccc(Cl)c3F)c2cc1O[C@@H]1CCN(C2COC2)CC1(F)F [Compound 11, (R)—N-(3-chloro-2-fluorophenyl)-6-((3,3-difluoro-1-(oxetan-3-yl)piperidin-4-yl)oxy)-7-methoxyquinazolin-4-amine]	> 0.3	< 1	
C#Cc1cccc(Nc2ncnc3cc(OC)c(O[C@@H]4CCN(C5COC5)CC4(F)F)cc23)c1F [Compound 12, (R)-6-((3,3-difluoro-1-(oxetan-3-yl)piperidin-4-yl)oxy)-N-(3-ethynyl-2-fluorophenyl)-7-methoxyquinazolin-4-amine]	> 0.3		
COc1cc2ncnc(Nc3cccc(Cl)c3F)c2cc1O[C@H]1CCN(C2COC2)CC1(F)F [Compound 13, (S)—N-(3-chloro-2-fluorophenyl)-6-((3,3-difluoro-1-(oxetan-3-yl)piperidin-4-yl)oxy)-7-methoxyquinazolin-4-amine]	> 0.3	< 1	
C#Cc1cccc(Nc2ncnc3cc(OC)c(O[C@H]4CCN(C5COC5)CC4(F)F)cc23)c1F [Compound 14, (S)-6-((3,3-difluoro-1-(oxetan-3-yl)piperidin-4-yl)oxy)-N-(3-ethynyl-2-fluorophenyl)-7-methoxyquinazolin-4-amine]	> 0.3		

Continued, in another order:

Kp at 4 h [1]	IC50 (PC-9 tumor cell) [nM]	Compound	inhibiting PC-9 tumor cell growth compared with Iressa (PC-9 tumor cell)
> 0.3	< 1	[2H]C([2H])([2H])Oc1cc2ncnc(Nc3cccc(Cl)c3F)c2cc1O[C@@H]1CCN(C2COC2)CC1(F)F [Compound 15, (R)—N-(3-chloro-2-fluorophenyl)-6-((3,3-difluoro-1-(oxetan-3-yl)piperidin-4-yl)oxy)-7-(methoxy-d3)quinazolin-4-amine]	
> 0.3		[2H]C([2H])([2H])Oc1cc2ncnc(Nc3cccc(C#C)c3F)c2cc1O[C@@H]1CCN(C2COC2)CC1(F)F [Compound 16, (R)-6-((3,3-difluoro-1-(oxetan-3-yl)piperidin-4-yl)oxy)-N-(3-ethynyl-2-fluorophenyl)-7-(methoxy-d3)quinazolin-4-amine]	
> 0.3	< 1	[2H]C([2H])([2H])Oc1cc2ncnc(Nc3cccc(Cl)c3F)c2cc1O[C@H]1CCN(C2COC2)CC1(F)F [Compound 17, (S)—N-(3-chloro-2-fluorophenyl)-6-((3,3-difluoro-1-(oxetan-3-yl)piperidin-4-yl)oxy)-7-(methoxy-d3)quinazolin-4-amine]	
> 0.3		[2H]C([2H])([2H])Oc1cc2ncnc(Nc3cccc(C#C)c3F)c2cc1O[C@H]1CCN(C2COC2)CC1(F)F [Compound 18, (S)-6-((3,3-difluoro-1-(oxetan-3-yl)piperidin-4-yl)oxy)-N-(3-ethynyl-2-fluorophenyl)-7-(methoxy-d3)quinazolin-4-amine]	
> 0.3		C#Cc1c(F)ccc(Nc2ncnc3cc(OC)c(O[C@@H]4CCN(C)CC4(F)F)cc23)c1F [Compound 19, (R)-6-((3,3-difluoro-1-methylpiperidin-4-yl)oxy)-N-(3-ethynyl-2,4-difluorophenyl)-7-methoxyquinazolin-4-amine]	
> 0.3		C#Cc1cccc(Nc2ncnc3cc(OC)c(O[C@@H]4CCN(C)CC4(F)F)cc23)c1F [Compound 20, (R)-6-((3,3-difluoro-1-methylpiperidin-4-yl)oxy)-N-(3-ethynyl-2-fluorophenyl)-7-methoxyquinazolin-4-amine]	
> 0.3		C#Cc1c(F)ccc(Nc2ncnc3cc(OC)c(O[C@H]4CCN(C)CC4(F)F)cc23)c1F [Compound 21, (S)-6-((3,3-difluoro-1-methylpiperidin-4-yl)oxy)-N-(3-ethynyl-2,4-difluorophenyl)-7-methoxyquinazolin-4-amine]	
> 0.3		C#Cc1cccc(Nc2ncnc3cc(OC)c(O[C@H]4CCN(C)CC4(F)F)cc23)c1F [Compound 22, (S)-6-((3,3-difluoro-1-methylpiperidin-4-yl)oxy)-N-(3-ethynyl-2-fluorophenyl)-7-methoxyquinazolin-4-amine]	
> 0.3	< 1	COc1cc2ncnc(Nc3ccc(F)c(Cl)c3F)c2cc1O[C@@H]1CCN(C2COC2)CC1(F)F [Compound 23, (R)—N-(3-chloro-2,4-difluorophenyl)-6-((3,3-difluoro-1-(oxetan-3-yl)piperidin-4-yl)oxy)-7-methoxyquinazolin-4-amine]	
> 0.3		C#Cc1c(F)ccc(Nc2ncnc3cc(OC)c(O[C@@H]4CCN(C5COC5)CC4(F)F)cc23)c1F [Compound 24, (R)-6-((3,3-difluoro-1-(oxetan-3-yl)piperidin-4-yl)oxy)-N-(3-ethynyl-2,4-difluorophenyl)-7-methoxyquinazolin-4-amine]	
> 0.3	< 1	COc1cc2ncnc(Nc3ccc(F)c(Cl)c3F)c2cc1O[C@H]1CCN(C2COC2)CC1(F)F [Compound 25, (S)—N-(3-chloro-2,4-difluorophenyl)-6-((3,3-difluoro-1-(oxetan-3-yl)piperidin-4-yl)oxy)-7-methoxyquinazolin-4-amine]	
> 0.3		C#Cc1c(F)ccc(Nc2ncnc3cc(OC)c(O[C@H]4CCN(C5COC5)CC4(F)F)cc23)c1F [Compound 26, (S)-6-((3,3-difluoro-1-(oxetan-3-yl)piperidin-4-yl)oxy)-N-(3-ethynyl-2,4-difluorophenyl)-7-methoxyquinazolin-4-amine]	
> 0.3	< 1	[2H]C([2H])([2H])Oc1cc2ncnc(Nc3ccc(F)c(Cl)c3F)c2cc1O[C@@H]1CCN(C2COC2)CC1(F)F [Compound 27, (R)—N-(3-chloro-2,4-difluorophenyl)-6-((3,3-difluoro-1-(oxetan-3-yl)piperidin-4-yl)oxy)-7-(methoxy-d3)quinazolin-4-amine]	
> 0.3		[2H]C([2H])([2H])Oc1cc2ncnc(Nc3ccc(F)c(C#C)c3F)c2cc1O[C@@H]1CCN(C2COC2)CC1(F)F [Compound 28, (R)-6-((3,3-difluoro-1-(oxetan-3-yl)piperidin-4-yl)oxy)-N-(3-ethynyl-2,4-difluorophenyl)-7-(methoxy-d3)quinazolin-4-amine]	
> 0.3		[2H]C([2H])([2H])Oc1cc2ncnc(Nc3ccc(F)c(C#C)c3F)c2cc1O[C@H]1CCN(C2COC2)CC1(F)F [Compound 30, (S)-6-((3,3-difluoro-1-(oxetan-3-yl)piperidin-4-yl)oxy)-N-(3-ethynyl-2,4-difluorophenyl)-7-(methoxy-d3)quinazolin-4-amine]	
